Experimental data reported in patent US6180629A, “[4,5]-Fused-1,3-disubstituted-1,2-diazine-6-one derivatives with nitrogen containing substitutents in position one for the treatment of neoplasia” (Cell Pathways, Inc., priority 1998, dated 2001).
Blank lines part the entries; values can stand above or below the compound they belong to.

How the values were obtained:
[1] = tested on: SW-480 colon adenocarcinoma cells; experiment: Apoptosis (DNA fragmentation) in SW-480 colon adenocarcinoma cells, Cell Death Detection ELISA; format: cell-based, human; conditions: for fold induction at 100 µM: SW480, read-out: DNA Fragmentation FS (Fold stimulation, FS=ODmax/ODveh); for fold induction at 100 µM / EC50: SW-480, 48 hrs; for Apoptosis Level (Mean OD Value ± SD): vehicle 0.175 ± 0.02
Protocol: Apoptosis was measured using an assay of cell death based on a characteristic feature of apoptotic cells (i.e., fragmented DNA). Briefly, SW-480 colon adenocarcinoma cells were plated in 96-well microtitre plates ("MTP") at a density of 10K cells/well in 180 μl and were incubated for 24 hrs. Cells were then treated with 20 μl aliquots of appropriately diluted compound, and allowed to incubate for an additional 48 hrs.
After the incubation, samples were prepared according to the following steps. The MTP was centrifuged (15 min., 1000 rpm) and the supernatant was carefully removed by fast inversion of the MTP. The cell pellets in each well were resuspended in 200 μl lysis buffer and incubated for 45 min. at room temperature to lyse the cells. The lysates were then centrifuged (15 min., 1000 rpm) and 20 μl aliquots of the supernatant (=cytoplasmicfraction) were transferred into the streptavidin coated MTP for analysis. Care was taken not to shake the lysed pellets in the MTP (=cell nucleii containing high molecular weight, unfragmented DNA). Samples were analyzed immediately, because storage at 4° C. or -20° C. reduces the ELISA-signals.
Samples were then processed according to a DNA fragmentation assay protocol, and dose-response curves were generated based on optical density readings. Quantification of DNA was done by a commercially available photometric enzyme-immunoassay manufactured by Mannheim-Boehringer under the name "Cell Death Detection ELISA^plus ". The assay is based on a quantitative sandwich-enzyme-immunoassay-principle using mouse monoclonal antibodies directed against DNA and histones, respectively. This allows the specific determination of mono and oligonucleosomes in the cytoplasmatic fraction of cell lysates. In brief, the assay procedure is as follows. The sample (cell-lysate, serum, culture-supernatant etc.) is placed into a streptavidin-coated MTP. Subsequently, a mixture of anti-histone-biotin and anti-DNA-POD is followed by incubation for 2 hours. During the incubation period, the anti-histone antibody binds to the histone-component of the nucleosomes and simultaneously fixes the immunocomplex to the streptavidin-coated MTP via its biotinylation. Additionally, the anti-DNA-POD antibody reacts with the DNA component of the nucleosomes. After removal of unbound antibodies by a washing step, the amount of nucleosomes is quantified by the POD retained in the immunocomplex. POD is determined photometrically with ABTS® (2,2'-Azino-di[3-ethylbenzthiazolin-sulfonat]) as substrate.
Fold stimulation (FS=ODmax/ODveh), an indicator of apoptotic response, was determined for each compound tested.

[2] = tested on: human colon carcinoma cell line, SW-480; experiment: Growth inhibition of SW-480 human colon carcinoma cells, Sulforhodamine B (SRB) protein binding assay, six days; format: cell-based; conditions: SW480, 144 h
Protocol: The compounds of Examples 1-3 were assayed for their growth inhibitory activity on the human colon carcinoma cell line, SW-480 obtained from ATCC (Rockville, Md.), to ascertain the degree of growth inhibition. Growth inhibition of this cell line is indicative of a benefit on precancerous lesions and neoplasms. The cell line and growth assay employed for such experiments are well characterized, and are used to evaluate the anti-neoplastic properties of NSAIDs. The assay is used by the United States National Cancer Institute in its screening program for new anti-cancer drugs.
Drug stock solutions were made in 100% DMSO and were then diluted with RPMI media for cell culture testing. All drug solutions were prepared fresh on the day of testing. The cultured cells were obtained at passage #99 and grown in RPMI media supplemented with 5% fetal calf serum, and 2 mM glutamine, 100 u/ml penicillin, 100 U/ml streptomycin, and 0.25 μg/ml amphotericin. The cultures were maintained in a humidified atmosphere of 95% air and 5% CO2 at 37° C. The cultures were passaged at preconfluent densities using a solution of 0.05% trypsin and 0.53 mM EDTA. Cells were plated at 1000 cells/well for 96 well flat-bottom microtiter plates.
Tumor cell growth inhibition was assessed using the Sulforhodamine B (SRB) protein binding assay. In this assay, tumor cells were plated in 96-well plates and treated with drug-containing media for six days (continuous exposure). For each plate, 6 wells were designated as no treatment controls, six wells as vehicle (0.1% DMSO) controls, and the remaining wells for drug dilutions with three wells per drug concentration. At the end of the exposure period, the cells were fixed and stained with sulforhodamine B, a protein binding dye. The dye was then solubilized, and the optical density of the resulting solution was determined on a 96-well plate reader. The mean dye intensity of the treated wells was then divided by the mean dye intensity in the control wells (6 wells of each) to determine the effect of the drug on the cells. Dye intensity is proportional to the number of cells or amount of protein per well. The resultant "percent inhibition" value then represents the degree of growth inhibition caused by the drug.
An IC50 value was also determined for the compound of Example 3. This value is equivalent to the concentration of drug needed to inhibit tumor cell growth by 50% relative to a vehicle control. IC50 value was obtained graphically by connecting the mean values for each drug concentration tested. Each experiment included at least three wells per drug concentration. Concentration was plotted on a log scale on the X-axis.

[3] = chronic administration, high cancer-risk patients; cited from earlier work
colonic polyps = conditions: patients; cited from earlier work

SMILES: O=C(Cn1nc(-c2ccccc2)c2ccccc2c1=O)NCc1ccccc1 [Example 1, 2-(1-Oxo-4-Phenylphthalazin-2-yl)-N-Benzylethanamide]
fold induction at 100 µM ([1]; Homo sapiens): 7.3
inhibition at 100 µM ([2]; six days continuous exposure): 90%

IC50 ([2]; six days continuous exposure, read-out: IC50 (tumor cell growth, relative to vehicle control)): 5.18 µM
SMILES: O=C(Cn1nc(-c2ccc(Cl)cc2)c2ccccc2c1=O)NCc1ccccc1 [Example 3, 2-[4-(4-Chlorophenyl)-1-Oxo-Phthalazin-2-yl]-N-Benzylethanamide]
Apoptosis Level (Mean OD Value ± SD) ([1]; Dose 0.001 μM): 0.156 ± 0.02 OD
Apoptosis Level (Mean OD Value ± SD) ([1]; Dose 0.01 μM): 0.165 ± 0.03 OD
Apoptosis Level (Mean OD Value ± SD) ([1]; Dose 0.1 μM): 0.161 ± 0.02 OD
Apoptosis Level (Mean OD Value ± SD) ([1]; Dose 1.0 μM): 0.208 ± 0.01 OD
Apoptosis Level (Mean OD Value ± SD) ([1]; Dose 10.0 μM): 1.789 ± 0.32 OD
Apoptosis Level (Mean OD Value ± SD) ([1]; Dose 100.0 μM): 2.763 ± 0.29 OD
EC50 ([1]; Homo sapiens, SW480, 48 h): 7.2 µM
fold induction at 100 µM ([1]; Homo sapiens): 6.1
EC50 [1]: 7.19 µM
inhibition at 100 µM ([2]; six days continuous exposure): 86.1%
activity at 0.001 µM ([2]; Dose 0.001 μM, read-out: Growth Inhibition (% Vehicle ± SD)): 105 ± 20%
activity at 0.01 µM ([2]; Dose 0.01 μM, read-out: Growth Inhibition (% Vehicle ± SD)): 99 ± 11.9%
activity at 0.1 µM ([2]; Dose 0.1 μM, read-out: Growth Inhibition (% Vehicle ± SD)): 91 ± 5%
activity at 1 µM ([2]; Dose 1.0 μM, read-out: Growth Inhibition (% Vehicle ± SD)): 94 ± 17.9%
activity at 10 µM ([2]; Dose 10.0 μM, read-out: Growth Inhibition (% Vehicle ± SD)): 34 ± 17.8%
activity at 100 µM ([2]; Dose 100.0 μM, read-out: Growth Inhibition (% Vehicle ± SD)): 6 ± 1.6%

SMILES: CC1=C(CC(=O)O)c2cc(F)ccc2/C1=C\c1ccc([S+](C)[O-])cc1 (centres unmarked) [sulindac]
gastric side effects [3]: causes gastric side effects in many such patients
effect on colonic polyps (colonic polyps): Polyps virtually disappear

SMILES: O=C(Cn1nc(-c2ccc(F)cc2)c2ccccc2c1=O)NCc1ccccc1 [Example 2]
fold induction at 100 µM ([1]; Homo sapiens): 1.2
inhibition at 100 µM ([2]; six days continuous exposure): -7.8%
